Data from publication PMC10486429, “Investigations Using Albumin Binders to Modify the Tissue Distribution Profile of Radiopharmaceuticals Exemplified with Folate Radioconjugates” (Cancers, 2023).

Key:
[1] = Radiolytic stability of 177Lu-DOTA-ALBs in PBS (HPLC); type: physicochemical; details: room temperature, 100 MBq/500 µL PBS
Description: The radiolabeling of DOTA-ALBs was carried out under standard labeling conditions at pH 4.5. The ligands (10−100 μM) were mixed with lutetium-177 (no-carrier added [^177Lu]LuCl3; in 0.04 M HCl; ITM GmbH Medical Isotopes, Munich, Germany) to reach molar activities of 25–50 MBq/nmol (Supplementary Materials Section S2). An analytical HPLC system equipped with a C18 column and a radioactivity detector was used for quality control of the radiolabeled DOTA-ALBs (Supplementary Materials Section S2). The ^177Lu-DOTA-ALBs were used for preclinical investigations without separation of the labeled from the unlabeled fraction. The radiolytic stability of the ^177Lu-DOTA-ALBs (50 MBq/nmol) diluted in phosphate-buffered saline (PBS; 100 MBq/500 μL) was assessed in vitro in the absence and presence of L-ascorbic acid (Supplementary Materials Section S3). The n-octanol/PBS distribution coefficients (logD values) were determined using a shake-flask method according to an established protocol (Supplementary Materials Section S4). The logD values were analyzed using a one-way ANOVA with Tukey’s multiple comparisons post-test using GraphPad Prism software (version 8). A p-value of <0.05 was considered a statistically significant difference. […]
S2. Radiolabeling of DOTA-ALBs with Lutetium-177
Purpose: The DOTA-ALBs were labeled with lutetium-177 for subsequent in vitro and […]
Methods: The DOTA-ALBs were dissolved in Milli-Q water at a concentration of 1 mM. Radiolabeling was performed by incubation of the respective DOTA-ALBs with lutetium-177 (no-carrier-added, in 0.04 M HCl; ITM Medical Isotopes GmbH, Munich, Germany) at 95 °C for 10 min in a 1:5 (v/v) mixture of sodium acetate (0.5 M) and HCl (0.05 M) at pH ~4.5 as previously reported. Quality control was performed by reversed-phase HPLC using an aliquot of the radiolabeled DOTA-ALBs (⁓1.5 MBq) diluted in Milli-Q water containing penta-sodium diethylenetriamine pentaacetic acid (Na5-DTPA; 50 µM). The HPLC system (Merck Hitachi LaChrom HPLC) was equipped with a D-7000 interface, a radioactivity detector (LB 508, Berthold Technologies GmbH), a L-6200A pump and a reversed-phase C18 column (XterraTM, 5 µm, 4.6×150 mm, Waters, USA). A linear gradient of 0.1% TFA in Milli-Q water (95–20%) and MeCN (5–80%) over 15 min was used as a mobile phase at a 1 mL/min flow rate. […]
to 50 MBq/nmol. The 177Lu-DOTA-ALBs were used without further purification for their in vitro and in vivo evaluation.
S3. Radiolytic Stability of 177Lu-DOTA-ALBs
Purpose: The stability of each 177Lu-labeled DOTA-ALB was assessed at a high activ-ity concentration to assess potential radiolytic degradation in the absence and presence of […]
Methods: After quality control of the labeled DOTA-ALBs using HPLC (t0), the radio-labeled DOTA-ALBs (50 MBq/nmol) were diluted in PBS pH 7.4 to obtain an activity con-centration of 100 MBq/500 µL. The samples were incubated at room temperature in the absence or presence of L-ascorbic acid (3 mg). Sodium acetate solution (0.5 M, pH 8.0, 150 µL) was added to the samples containing L-ascorbic acid in order to adjust the pH value to ⁓6.5. The integrity of the radiolabeled DOTA-ALBs was assessed after a 4 h- and 24 h-incubation period using HPLC as described above (Supplementary Material, Section S2). The HPLC chromatograms were analyzed by determination of the peak area of the radio-labeled DOTA-ALBs, the released lutetium-177 as well as potential degradation products of unknown structure. The quantity of the intact product was expressed as per-centage of the sum of integrated peak areas of the entire chromatogram and set in relation to the original value determined at t0 (radiochemical purity ≥95% set as 100%).
Results: The results are reported in the main article and presented together with the retention times of the product peak in Table S2.
Table S2. Radiolytic stability of 177Lu-DOTA-ALBs after incubation in the absence or presence of L-ascorbic acid at room temperature (average of n=2 individually performed experiments). […]

[2] = n-octanol/PBS distribution coefficient (shake-flask) of 177Lu-RedFols; type: physicochemical; details: n-octanol/PBS pH 7.4
Description: The radiolytic stability of ^177Lu-RedFols (50 MBq/nmol) in PBS pH 7.4 was investigated at an activity concentration of 100 MBq in 500 µL over 24 h at room temperature. The n-octanol/PBS distribution coefficients (logD values) of the folate radioconjugates (50 MBq/nmol) were determined using the same shake-flask method as used for the ^177Lu-DOTA-ALBs, including statistical analysis (Supplementary Material, Section S4). […]
S4. n-Octanol/PBS Distribution Coefficient of 177Lu-DOTA-ALBs
Purpose: The n-octanol/PBS distribution coefficients (logD values) were determined for all 177Lu-DOTA-ALBs in order to assess their hydrophilic/hydrophobic properties.
Methods: The n-octanol/PBS distribution coefficients (logD values) of the 177Lu-DOTA-ALBs were determined as previously described. […] 4 . […]
The vials were vortexed vigorously for 1 min followed by centrifugation for 6 min at 560 rcf for phase separation. An aliquot was taken from each phase and measured in a γ-counter (Perkin Elmer, Wallac Wizard 1480, Waltham, MA, USA). The distribution coeffi-cients were calculated as the logarithm of the ratio of counts per minute (cpm) measured in the n-octanol phase relative to the cpm measured in the PBS phase. The results were listed as the average ± standard deviation (SD) of the data obtained from 2–3 independent experiments, each performed with five replicates. […]

Row | logD [2] | Compound | Intact radioligand ([1]; with L-ascorbic acid, 4 h) | Intact radioligand ([1]; with L-ascorbic acid, 24 h) | Intact radioligand ([1]; without L-ascorbic acid, 4 h) | Intact radioligand ([1]; without L-ascorbic acid, 24 h) | logD Values [2]
1 | – | O=C(O)CN1CCN(CC(=O)O)CCN(CC(=O)NCCC(=O)N[C@@H](CCCCNC(=O)CCCc2ccc(I)cc2)C(=O)O)CCN(CC(=O)O)CC1.[177Lu] [[^177Lu]Lu-DOTA-ALB-1] | 99% | 96% | 92% | 51% | –
2 | – | CN1c2c(nc(N)[nH]c2=O)NC[C@H]1CNc1ccc(C(=O)N[C@@H](CCC(=O)N[C@@H](CCCCNC(=O)CN2CCN(CC(=O)O)CCN(CC(=O)O)CCN(CC(=O)O)CC2)C(=O)N[C@@H](CCCCNC(=O)c2ccc(CNC(=O)CCCc3ccc(I)cc3)cc2)C(=O)O)C(=O)O)cc1 [[^177Lu]Lu-6R-RedFol-3, metal not drawn] | – | – | – | – | −3.2 ± 0.1
3 | – | CN1c2c(nc(N)[nH]c2=O)NCC1CNc1ccc(C(=O)NC(CCC(=O)NC(CCCCNC(=O)CN2CCN(CC(=O)[O-])CCN(CC(=O)[O-])CCN(CC(=O)[O-])CC2)C(=O)NC(CCCCNC(=O)c2ccc(CNC(=O)CCCCc3ccc(I)cc3)cc2)C(=O)O)C(=O)O)cc1.[177Lu+3] (stereo not drawn) [[^177Lu]Lu-6S-RedFol-25] | – | – | – | – | −3.0 ± 0.1
4 | – | CN1c2c(nc(N)[nH]c2=O)NCC1CNc1ccc(C(=O)NC(CCC(=O)NC(CCCCNC(=O)CN2CCN(CC(=O)[O-])CCN(CC(=O)[O-])CCN(CC(=O)[O-])CC2)C(=O)NC(CCCCNC(=O)c2ccc(CNC(=O)CCCc3ccc(I)cc3)cc2)C(=O)O)C(=O)O)cc1.[177Lu+3] (stereo not drawn) [[^177Lu]Lu-6S-RedFol-3] | – | – | – | – | −3.2 ± 0.1
5 | – | O=C(O)CN1CCN(CC(=O)O)CCN(CC(=O)NCCC(=O)N[C@@H](CCCCNC(=O)c2ccc(CNC(=O)CCCCc3ccc(I)cc3)cc2)C(=O)O)CCN(CC(=O)O)CC1.[177Lu] [[^177Lu]Lu-DOTA-ALB-25] | 99% | 97% | 91% | 41% | –
6 | -3.4 ± 0.2 | CN1c2c(nc(N)[nH]c2=O)NC[C@H]1CNc1ccc(C(=O)N[C@@H](CCC(=O)N[C@@H](CCCCNC(=O)CN2CCN(CC(=O)O)CCN(CC(=O)O)CCN(CC(=O)O)CC2)C(=O)N[C@@H](CCCCNC(=O)CCCCc2ccc(I)cc2)C(=O)O)C(=O)O)cc1 [[^177Lu]Lu-6R-RedFol-24, metal not drawn] | – | – | – | – | –
7 | – | O=C(O)CN1CCN(CC(=O)O)CCN(CC(=O)NCCC(=O)N[C@@H](CCCCNC(=O)c2ccc(CNC(=O)CCCc3ccc(I)cc3)cc2)C(=O)O)CCN(CC(=O)O)CC1.[177Lu] [[^177Lu]Lu-DOTA-ALB-3] | 99% | 97% | 89% | 39% | –
8 | – | CN1c2c(nc(N)[nH]c2=O)NC[C@H]1CNc1ccc(C(=O)N[C@@H](CCC(=O)N[C@@H](CCCCNC(=O)CN2CCN(CC(=O)O)CCN(CC(=O)O)CCN(CC(=O)O)CC2)C(=O)N[C@@H](CCCCNC(=O)c2ccc(CNC(=O)CCCCc3ccc(I)cc3)cc2)C(=O)O)C(=O)O)cc1 [[^177Lu]Lu-6R-RedFol-25, metal not drawn] | – | – | – | – | −3.0 ± 0.1
9 | – | O=C(O)CN1CCN(CC(=O)O)CCN(CC(=O)NCCC(=O)N[C@@H](CCCCNC(=O)CCCCc2ccc(I)cc2)C(=O)O)CCN(CC(=O)O)CC1.[177Lu] [[^177Lu]Lu-DOTA-ALB-24] | 99% | 95% | 88% | 39% | –
